From US10202650B2, “Methods for monitoring ELOVL2, KLF14 and PENK gene expression following treatment with vitamin C” (The Regents of the University of California, priority 2016, dated 2019)

Legend:
Format in all cases: cell-based, human
ELOVL2 [1] = assay: Expression of age-related marker (ARM, e.g. ELOVL2) in WI38 fibroblasts, Example 1
Experimental: (§1) The proliferation effects of vitamin C on WI38 fibroblasts were tested. This cell line is useful as an aging model since it is a mortal human cell line that follows the Hayflick limit, in that it undergoes a certain number of cell divisions before stopping. The senescence level in WI38 increased as the cell line divided. […] A membrane-soluble derivative of vitamin C, 6-O-Palmitoyl-L-ascorbic acid (PalmAA), which has an additional fatty acid that allows it to pass through the cell membrane, was also tested. The oxidized derivative of vitamin C, dehydroascorbic acid (DHAA), as Vitamin C is actively converted to DHAA in cell culture media, was tested as well. Insulin was also added to this experiment to upregulate Glut-1 transporter, through which DHAA enters the cell.
A) Cell images of 12-well plate treated with low concentration vitamin C at Day 0, 4 and 5 for PD46. B) Confluency plot calculated through ImageJ of PD46, n=2. […] F) Confluency plot calculated through ImageJ of PD48, n=2. […]
FIG. 2 illustrates phenotypic and genotypic effects of vitamin C treatment were analyzed on younger WI38 PD42 and older WI38 PD58 fibroblasts. […] B) Confluency plot calculated through ImageJ of PD42, n=2. […] F) Confluency plot calculated through ImageJ of PD58, n=2. […]
A) Cell images of 12-well at Day 0 and Day 8 of treatment for PD55. B) Confluency plot calculated through ImageJ for PD55, n=2. […]

WI38 fibroblasts = assay: Proliferation (confluency) of WI38 fibroblasts, Example 1; details: for cell proliferation: concentration not stated
Experimental: as §1
A) Cell images of 12-well plate treated with low concentration vitamin C at Day 0, 4 and 5 for PD46. B) Confluency plot calculated through ImageJ of PD46, n=2. C) and D) Expression graphs for ARM (e.g., ELOVL2) and SLC2A1 for PD46, n=3. E) Cell images of 12-well treated with high concentration vitamin C at Day 0, 4 and 5 for PD48. F) Confluency plot calculated through ImageJ of PD48, n=2. G) and […]) Expression graphs for ARM and SLC2A1 for PD48, n=3.
FIG. 2 illustrates phenotypic and genotypic effects of vitamin C treatment were analyzed on younger WI38 PD42 and older WI38 PD58 fibroblasts. A) Cell images of 12-well at Day 0, 1 and 2 of treatment for PD42. B) Confluency plot calculated through ImageJ of PD42, n=2. C) and D) Expression graphs for ARM (e.g., ELOVL2) and SLC2A1 for PD42, n=3. E) Cell images of 12-well at Day 0, 5 and 7 of treatment for PD58. F) Confluency plot calculated through ImageJ of PD58, n=2. G) and H) Expression graphs for ARM (e.g., ELOVL2) and SLC2A1 for […], n=3. I) Cell images of senescence and DAPI staining of PD45.5 fibroblasts. J) Graph of percentage senescence for younger PD32 fibroblast and older PD45.5 fibroblast. n=3.
A) Cell images of 12-well at Day 0 and Day 8 of treatment for PD55. B) Confluency plot calculated through ImageJ for PD55, n=2. C) and D) Expression graph for ARM (e.g., ELOVL2) and SLC2A1 for PD55, n=3.
A) Diagram of postulated pathway for interconversion of DHAA to vitamin C and their effect on fibroblast cells. B) Cell images of 12-well at Day 10 of treatment for PD54. C) Confluency plot calculated through ImageJ of PD54, n=2. D and E) Expression graphs for ARM (e.g., ELOVL2) and SLC2A1 for PD54, n=3. F) Graph of percentage senescence for younger PD32 fibroblast and older PD45.5 fibroblast. n=3. G) Fluorescent ROS assay showing fluorescent ROS relative to total fibroblasts in PD48 fibroblasts.

ELOVL2 [2] = assay: ELOVL2 expression in aging WI38 cells (PD55)
Experimental: (§2) WI38 cells at PD55 (55th population doubling) were incubated with different concentrations of vitamin C (Vc), L-dehydro ascorbic acid (DHAA or DHA), or L-ascorbic acid 2-phosphate (VcP). DHAA (or DHA) is an oxidized form of vitamin C. L-ascorbic acid 2-phosphate (VcP) is a vitamin C derivative. Three concentrations were used for each tested compound and the concentrations included 0.3 mM (equivalent to […]), 1.2 mM, or 1.8 mM.
The expression of ELOVL2 is also observed to be increased with a low concentration of vitamin C and all concentrations of L-ascorbic acid 2-phosphate (VcP) but not with DHAA (FIG. 27).

WI38 cells at PD55 [3] = assay: WI38 PD55 confluency / cell proliferation, Example 6
Experimental: as §2

WI38 cells at PD55 [4] = assay: Cell senescence of WI38 PD55 by beta gal staining assay
Experimental: as §2

aged fibroblast = assay: Reversal of biological age / reprogramming of aged fibroblast into iPSCs; details: low concentration
Experimental: As used herein, the terms “biological age (bioage),” “chemical age,” “methylomic age,” and “molecular age” are equivalent or synonymous. The biological age is determined using a set of age-associated markers (e.g., epigenetic markers) of a subject or an organism. In the current disclosure, the biological age is determined from an analysis of the modification status of specific CpG dinucleotide and, in particular, e.g., the methylation status at the C-5 position of cytosine.

[5] = all concentrations (0.3 mM, 1.2 mM, 1.8 mM)
[6] = all three concentrations (0.3 mM, 1.2 mM, 1.8 mM)

Compound: CCCCCCCCCCCCCCCC(=O)OC[C@H](O)[C@H]1OC(=O)C(O)=C1O [6-O-Palmitoyl L-ascorbic acid, 6-O-Palmitoyl-L-ascorbic acid]
- gene expression change in the age related marker (ELOVL2 [1]): caused no gene expression change in the age related marker
- cell proliferation (WI38 fibroblasts): induced minimal proliferation

Compound: O=C1O[C@H]([C@@H](O)CO)C(=O)C1=O [DHAA, dehydroascorbic acid]
- cell proliferation (WI38 fibroblasts): induced lower cell proliferation compared to an equal concentration of vitamin C
- expression of ELOVL2 (ELOVL2 [2]; [5]): not
- cell proliferation (WI38 cells at PD55 [3]; [6]): increased cell proliferation is not observed
- protection against cell senescence (WI38 cells at PD55 [4]; [5]): did not exert a protective effect against cell senescence

Compound: O=C1O[C@H]([C@@H](O)CO)C(O)=C1O [vitamin C, L-ascorbic acid]
- proliferative effect, older vs younger fibroblast cells (WI38 fibroblasts; 50 μg/mL): more pronounced on older fibroblast cells compared to younger fibroblast cells
- fibroblast cell growth / cell death (WI38 fibroblasts; higher concentrations, 200 μg/mL to 500 μg/mL): slowed or inhibited fibroblast cell growth while causing cell death
- fibroblast proliferation (WI38 fibroblasts; low concentrations, 50 μg/mL to 100 μg/mL): induced fibroblast proliferation
- biological age (aged fibroblast): reversed
- reprogramming of aged fibroblast into iPSCs (aged fibroblast): reverted into iPSCs from aged fibroblast
- expression of ELOVL2 (ELOVL2 [2]; low concentration): increased
- cell proliferation rate (WI38 cells at PD55 [3]; higher concentration, 1.2 mM or 1.8 mM, relative to 0.3 mM): slower cell proliferation rate relative to the concentration at 0.3 mM
- cell proliferation (WI38 cells at PD55 [3]; low concentration, 0.3 mM): increase cell proliferation
- protection against cell senescence (WI38 cells at PD55 [4]; low concentration): protective against cell senescence

Compound: O=C1O[C@H]([C@@H](O)CO)C(O)=C1OP(=O)(O)O [L-ascorbic acid 2-phosphate]
- expression of ELOVL2 (ELOVL2 [2]; [5]): increased
- cell proliferation (WI38 cells at PD55 [3]; [6]): cell proliferation is observed
- protection against cell senescence (WI38 cells at PD55 [4]; [5]): protective against cell senescence
